This note sets out measurements from US11730720B2, “ALK5 inhibitors” (THERAVANCE BIOPHARMA R&D IP, LLC, priority 2018, dated 2023).

Experiment [1] has as its target T1, recombinant human ALK5 (TGF-βR1) protein (Homo sapiens, UniProt P36897).
T1 construct: purchased Life Technologies PR9075A
T1 sequence (P36897 34-503): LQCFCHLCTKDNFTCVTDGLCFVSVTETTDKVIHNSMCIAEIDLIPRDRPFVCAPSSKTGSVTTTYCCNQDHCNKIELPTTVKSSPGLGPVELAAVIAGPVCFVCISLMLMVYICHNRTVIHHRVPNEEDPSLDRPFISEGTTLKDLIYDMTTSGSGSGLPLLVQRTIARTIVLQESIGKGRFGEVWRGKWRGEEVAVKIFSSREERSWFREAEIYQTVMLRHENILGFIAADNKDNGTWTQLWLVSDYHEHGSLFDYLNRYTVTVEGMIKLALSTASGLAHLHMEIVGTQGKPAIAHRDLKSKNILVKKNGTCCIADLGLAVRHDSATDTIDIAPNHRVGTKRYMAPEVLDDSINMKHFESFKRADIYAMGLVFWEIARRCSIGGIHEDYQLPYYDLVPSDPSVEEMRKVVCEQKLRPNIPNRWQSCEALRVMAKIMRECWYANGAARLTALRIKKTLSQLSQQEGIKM
Kind of experiment: Biochemical ALK5 (TGF-βR1) assay to measure pKi (LANCE Ultra ULight kinase assay). To be noted: apparent pKi, converted from pIC50 using the Cheng-Prusoff equation. The method, boiled down:
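TR-FRET kinase format: compound dose range 10 μM–25 pM equilibrated 60 min with human ALK5 and ULight-labelled topoisomerase 2α peptide in HEPES/MgCl2 buffer pH 7.5 with DTT. Reaction started with ATP (125 μM stock, 5× final), 60 min at 37° C, stopped with EDTA/Eu-anti-phospho antibody; pKi derived from pIC50 via Cheng-Prusoff.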

Experiment [2] relates to TGF-β-stimulated SMAD3 phosphorylation in BEAS-2B cells. Kind of experiment: Cellular ALK5 potency assay, inhibition of TGF-β stimulated pSMAD3 formation in BEAS-2B cells. The class given is cell-based. The conditions noted are these: Homo sapiens, inhibition of TGF-β (10 ng/mL) stimulated pSMAD3 formation, 1 hour compound incubation, read-out: BEAS2B pIC50 (converted). The method, boiled down: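 Phospho-SMAD3 was quantified by AlphaLISA in lysates of human lung epithelial BEAS-2B cells. Compound was added 1 h (37 °C, HEPES/BSA-supplemented HBSS) before a 30 min challenge with 10 ng/mL TGF-β. Values are pIC50 relative to stimulated cells without compound.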

Structures are written as SMILES.

With `CNCCn1cc(-c2cnc3ccc(-c4c(-c5cc(Cl)ccc5F)nc5ccccn45)cc3c2)cn1` [Compound 19-1, 2-(4-(6-(2-(5-chloro-2-fluorophenyl)imidazo[1,2-a]pyridin-3-yl)quinolin-3-yl)-1H-pyrazol-1-yl)-N-methylethan-1-amine], the Ki in experiment [1] is 0.0398 to 0.316 nM. Further, in experiment [2], the IC50 was 25.1 to 158 nM.
For `Fc1ccc(Cl)cc1-c1nc2ccccn2c1-c1ccc2ncc(-c3cnn(C4CCCNC4)c3)cc2c1` (centres unmarked) [Compound 19-2, 6-[2-(5-chloro-2-fluoro-phenyl)imidazo[1,2-a]pyridin-3-yl]-3-[1-(3-piperidyl)pyrazol-4-yl]quinoline] the same measures were 0.0398 to 0.316 nM and 200 to 1260 nM.
The matching figures for `Fc1ccc(Cl)cc1-c1nc2ccccn2c1-c1ccc2ncc(-c3cn[nH]c3)cc2c1` [Compound 19-3, 6-[2-(5-chloro-2-fluoro-phenyl)imidazo[1,2-a]pyridin-3-yl]-3-(1H-pyrazol-4-yl)quinoline]: 0.398 to 3.16 nM and 25.1 to 158 nM.
As to `Fc1ccc(Cl)cc1-c1nc2ccccn2c1-c1ccc2ncc(N3CCNCC3)cc2c1` [Compound 19-4, 6-(2-(5-chloro-2-fluorophenyl)imidazo[1,2-a]pyridin-3-yl)-3-(piperazin-1-yl)quinoline], the Ki in experiment [1] was 0.0398 to 0.316 nM. Moreover, the IC50 in experiment [2] was 200 to 1260 nM.
For `CN1CCN(C2CCN(c3cnc4ccc(-c5c(-c6cc(Cl)ccc6F)nc6ccccn56)cc4c3)CC2)CC1` [Compound 19-5, 6-[2-(5-chloro-2-fluoro-phenyl)imidazo[1,2-a]pyridin-3-yl]-3-[4-(4-methylpiperazin-1-yl)-1-piperidyl]quinoline] the same measures were 0.0398 to 0.316 nM and 200 to 1260 nM.
Regarding `CC(C)N1CCN(CCNc2cnc3ccc(-c4c(-c5cc(Cl)ccc5F)nc5ccccn45)cc3c2)CC1` [Compound 19-6, 6-(2-(5-chloro-2-fluorophenyl)imidazo[1,2-a]pyridin-3-yl)-N-(2-(4-isopropylpiperazin-1-yl)ethyl)quinolin-3-amine], in experiment [1], the Ki is 0.398 to 3.16 nM. Also, the IC50 in experiment [2] was 200 to 1260 nM.
For `Fc1ccc(Cl)cc1-c1nc2ccccn2c1-c1ccc2ncc(N3CCCNCC3)cc2c1` [Compound 19-8, 6-[2-(5-chloro-2-fluoro-phenyl)imidazo[1,2-a]pyridin-3-yl]-3-(1,4-diazepan-1-yl)quinoline] the same measures were 0.398 to 3.16 nM and 200 to 1260 nM.
`CNCCn1cc(-c2cnc3ccc(-c4c(-c5cc(Cl)ccc5F)nnn4Cc4cccnc4)cc3c2)cn1` [Compound 20-1, 2-(4-(6-(4-(5-chloro-2-fluorophenyl)-1-(pyridin-3-ylmethyl)-1H-1,2,3-triazol-5-yl)quinolin-3-yl)-1H-pyrazol-1-yl)-N-methylethan-1-amine]: the Ki in experiment [1] was 0.0398 to 0.316 nM. The IC50 in experiment [2] was 25.1 to 158 nM.
The matching figures for `CNCCn1cc(-c2cnc3ccc(-c4c(-c5cc(Cl)ccc5F)[nH]c5cccnc45)cc3c2)cn1` [Compound 21-1, 2-(4-(6-(2-(5-chloro-2-fluorophenyl)-1H-pyrrolo[3,2-b]pyridin-3-yl)quinolin-3-yl)-1H-pyrazol-1-yl)-N-methylethan-1-amine]: 0.398 to 3.16 nM and 200 to 1260 nM.
For the compound `CNCCn1cc(-c2cnc3ccc(-c4nc[nH]c4-c4cc(Cl)c(F)cc4F)cc3c2)cn1` [Compound 22-2, 2-(4-(6-(5-(5-chloro-2,4-difluorophenyl)-1H-imidazol-4-yl)quinolin-3-yl)-1H-pyrazol-1-yl)-N-methylethan-1-amine], the Ki in experiment [1] was 0.0398 to 0.316 nM. The IC50 in experiment [2] was 25.1 to 158 nM.
On to `NCCn1cc(-c2cnc3ccc(-c4nc[nH]c4-c4cc(Cl)c(F)cc4F)cc3c2)cn1` [Compound 22-3, 2-[4-[6-[5-(5-chloro-2,4-difluoro-phenyl)-1H-imidazol-4-yl]-3-quinolyl]pyrazol-1-yl]ethanamine], for which, in experiment [1], the Ki is 0.0398 to 0.316 nM. For the same compound, in experiment [2], the IC50 is 25.1 to 158 nM.
For `CC(C)N1CCN(CCNc2cnc3ccc(-c4nc[nH]c4-c4cc(Cl)c(F)cc4F)cc3c2)CC1` [Compound 22-4, 6-(5-(5-chloro-2,4-difluorophenyl)-1H-imidazol-4-yl)-N-(2-(4-isopropylpiperazin-1-yl)ethyl)quinolin-3-amine] the same measures were 0.0398 to 0.316 nM and 25.1 to 158 nM.
For `Fc1cc(F)c(-c2[nH]cnc2-c2ccc3ncc(NCCN4CCNCC4)cc3c2)cc1Cl` [Compound 22-5, 6-[5-(5-chloro-2,4-difluoro-phenyl)-1H-imidazol-4-yl]-N-(2-piperazin-1-ylethyl)quinolin-3-amine] the same measures were 0.0398 to 0.316 nM and 25.1 to 158 nM.
As for `O=C(O)[C@H]1CN(c2cnc3ccc(-c4nc[nH]c4-c4cc(Cl)c(F)cc4F)cc3c2)CCN1` [Compound 22-6, (2R)-4-[6-[5-(5-chloro-2,4-difluoro-phenyl)-1H-imidazol-4-yl]-3-quinolyl]piperazine-2-carboxylic acid], the Ki in experiment [1] was 3.98 to 31.6 nM. Further, in experiment [2], the IC50 is 1580 to 10000 nM.
For `NCCn1cc(-c2cnc3ccc(-c4nc[nH]c4-c4ccc(F)c(F)c4)cc3c2)cn1` [Compound 23-1, 2-(4-(6-(5-(3,4-difluorophenyl)-1H-imidazol-4-yl)quinolin-3-yl)-1H-pyrazol-1-yl)ethan-1-amine] the same measures were 0.0398 to 0.316 nM and 25.1 to 158 nM.
The matching figures for `CNCCn1cc(-c2cnc3ccc(-c4nc[nH]c4-c4ccc(F)c(F)c4)cc3c2)cn1` [Compound 23-2, 2-[4-[6-[5-(3,4-difluorophenyl)-1H-imidazol-4-yl]-3-quinolyl]pyrazol-1-yl]-N-methyl-ethanamine]: 0.0398 to 0.316 nM and 25.1 to 158 nM.
`N[C@@H]1CCCC[C@H]1n1cc(-c2cnc3ccc(-c4nc[nH]c4-c4ccc(F)c(F)c4)cc3c2)cn1` [Compound 23-3, (1R,2R)-2-(4-(6-(5-(3,4-difluorophenyl)-1H-imidazol-4-yl)quinolin-3-yl)-1H-pyrazol-1-yl)cyclohexan-1-amine]: the Ki in experiment [1] was 0.0398 to 0.316 nM. Moreover, the IC50 in experiment [2] was 25.1 to 158 nM.
`CC(C)N1CCN(CCNc2cnc3ccc(-c4nc[nH]c4-c4ccc(F)c(F)c4)cc3c2)CC1` [Compound 23-4, 6-(5-(3,4-difluorophenyl)-1H-imidazol-4-yl)-N-(2-(4-isopropylpiperazin-1-yl)ethyl)quinolin-3-amine]: in experiment [1], the Ki was 3.98 to 31.6 nM. The IC50 in experiment [2] was 25.1 to 158 nM.
The matching figures for `Fc1ccc(-c2[nH]cnc2-c2ccc3ncc(NCCN4CCNCC4)cc3c2)cc1F` [Compound 23-5, 6-[5-(3,4-difluorophenyl)-1H-imidazol-4-yl]-N-(2-piperazin-1-ylethyl)quinolin-3-amine]: 3.98 to 31.6 nM and 200 to 1260 nM.
For `CNCCn1cc(-c2cnc3ccc(-c4nc[nH]c4-c4cccc(Cl)c4)cc3c2)cn1` [Compound 24-1, 2-(4-(6-(5-(3-chlorophenyl)-1H-imidazol-4-yl)quinolin-3-yl)-1H-pyrazol-1-yl)-N-methylethan-1-amine], the Ki in experiment [1] is not above 0.0316 nM. For the same compound, the IC50 in experiment [2] is not above 20 nM.
As to `CC(C)N1CCN(CCNc2cnc3ccc(-c4nc[nH]c4-c4cccc(Cl)c4)cc3c2)CC1` [Compound 24-2, 6-(5-(3-chlorophenyl)-1H-imidazol-4-yl)-N-(2-(4-isopropylpiperazin-1-yl)ethyl)quinolin-3-amine], the Ki in experiment [1] was 0.398 to 3.16 nM. The IC50 in experiment [2] is 25.1 to 158 nM.
The matching figures for `C[C@@H]1CN(CCNc2cnc3ccc(-c4nc[nH]c4-c4cccc(Cl)c4)cc3c2)C[C@H](C)N1` [Compound 24-3, 6-[5-(3-chlorophenyl)-1H-imidazol-4-yl]-N-[2-[(3R,5S)-3,5-dimethylpiperazin-1-yl]ethyl]quinolin-3-amine]: 0.398 to 3.16 nM and 25.1 to 158 nM.
The matching figures for `Clc1cccc(-c2[nH]cnc2-c2ccc3ncc(NCCN4CCNCC4)cc3c2)c1` [Compound 24-4, 6-[5-(3-chlorophenyl)-1H-imidazol-4-yl]-N-(2-piperazin-1-ylethyl)quinolin-3-amine]: 0.398 to 3.16 nM and 25.1 to 158 nM.
For `CNC1CCN(c2cnc3ccc(-c4c(-c5cc(Cl)ccc5F)[nH]c5cccnc45)nc3c2)CC1` [Compound 25-1, 1-[6-[2-(5-chloro-2-fluoro-phenyl)-1H-pyrrolo[3,2-b]pyridin-3-yl]-1,5-naphthyridin-3-yl]-N-methyl-piperidin-4-amine] the same measures were 3.98 to 31.6 nM and 200 to 1260 nM.
Consider `CNCCn1cc(-c2cnc3ccc(-c4c(-c5cc(Cl)ccc5F)[nH]c5cccnc45)nc3c2)cn1` [Compound 25-2, 2-[4-[6-[2-(5-chloro-2-fluoro-phenyl)-1H-pyrrolo[3,2-b]pyridin-3-yl]-1,5-naphthyridin-3-yl]pyrazol-1-yl]-N-methyl-ethanamine], for which the Ki in experiment [1] is 0.398 to 3.16 nM. The IC50 in experiment [2] was 200 to 1260 nM.
